# Laboratory results as given in patent US20260078130A1, “NAMPT MODULATORS, PREPARATIONS, AND USES THEREOF” (SIRONAX LTD., priority 2022, published 2026).
# Read-outs that look alike come from different tables or passages of the source.
# Target: T1, human enzyme NAMPT (full length) (Homo sapiens, UniProt P43490)
# T1 construct: human enzyme NAMPT (full length)
# Test: NMN fluorescence biochemical assay (stimulation of NMN synthesis by NAMPT)
# Details: for EC50: concentration giving half-maximal activation, read-out: Enzymatic EC50; for Enzymatic Emax: fold change of maximal activation compared to DMSO
# Method: Certain compounds described herein were assayed for their ability to stimulate the synthesis of nicotinamide mononucleotide (NMN) by human enzyme NAMPT (full length). The enzymatic assay was performed in a 384-well plate using a TMD buffer (50 mM Tris-HCl, 10 mM MgCl2, 2 mM DTT, pH 7.5). Purified NAMPT (100 nM) was pre-incubated with 0.2 μL. DMSO solution of the test compound (with a series of concentrations) in 10 μL TMD buffer for 15 min at 37° C. The reaction was initiated by adding 10 μL solution of NAM (50 μM), PRPP (100 μM), and ATP (4 mM) in TMD buffer. After 1 h of incubation at 37 T, an aliquot (20 μL) of the NMN-containing sample was sequentially mixed with 5 μL of 20% acetophenone (in DMSO) and 5 μL of 2M KOH. The mixture was placed on ice for 10 min. Next, 22.5 μL of 100% formic acid was added to each sample, vortexed, and then incubated at 37° C. for 20 min. Fluorescence (Ex/Em=382/445 nm) was measured using an Envision plate reader. The potency measurements for the test compounds were quantified and represented as EC50 (concentration of a compound that gives half-maximal activation) and Emax (fold change of a compound's maximal activation compared to DMSO).
# [1] = NMN fluorescence assay, purified human NAMPT 100 nM
# [2] = NMN synthesis by purified human NAMPT (100 nM)
# T1 sequence (P43490 whole entry): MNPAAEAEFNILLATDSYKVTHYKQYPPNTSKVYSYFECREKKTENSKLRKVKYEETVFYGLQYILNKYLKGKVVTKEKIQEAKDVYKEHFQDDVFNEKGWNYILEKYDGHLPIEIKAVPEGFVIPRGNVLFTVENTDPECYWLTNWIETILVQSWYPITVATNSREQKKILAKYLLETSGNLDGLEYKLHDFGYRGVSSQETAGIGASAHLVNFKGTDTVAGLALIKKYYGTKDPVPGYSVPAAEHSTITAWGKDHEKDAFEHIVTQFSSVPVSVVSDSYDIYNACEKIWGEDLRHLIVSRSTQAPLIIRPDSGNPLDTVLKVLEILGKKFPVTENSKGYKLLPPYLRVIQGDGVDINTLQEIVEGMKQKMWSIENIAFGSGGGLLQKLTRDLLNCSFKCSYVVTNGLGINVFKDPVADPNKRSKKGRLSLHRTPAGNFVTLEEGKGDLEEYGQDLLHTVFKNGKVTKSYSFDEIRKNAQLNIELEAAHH
Structure (SMILES),EC50 [1] [µM],Enzymatic Emax,EC50 [2] [µM]
"Cc1ccnc(C#N)c1CC1c2ccccc2C(=O)N1CC1CCc2[nH]nnc2C1 (centres unmarked) [Compound 454, 4-methyl-3-((3-oxo-2-((4,5,6,7-tetrahydro-1H-benzo[d][1,2,3]triazol-5-yl)methyl)isoindolin-1-yl)methyl)picolinonitrile]",≥ 5,C (2≥C),–
"O=C1c2ccccc2C(Cc2ncccc2Br)N1Cc1ccc(O)cn1 (centres unmarked) [Compound 267, 3-((3-bromopyridin-2-yl)methyl)-2-((5-hydroxypyridin-2-yl)methyl)isoindolin-1-one]",–,A (A>3),0.5 to 5
"Cc1cc2[nH]c(=O)oc2cc1CN1C(=O)c2ccccc2C1Cc1ncccc1Br (centres unmarked) [Compound 333, 6-((1-((3-bromopyridin-2-yl)methyl)-3-oxoisoindolin-2-yl)methyl)-5-methylbenzo[d]oxazol-2(3H)-one]",0.5 to 5,B (3≥B>2),–
"O=C1COc2ccccc2N1Cc1ccc(O)cc1 [Compound 6, 4-(4-hydroxybenzyl)-2H-benzo[b][1,4]oxazin-3(4H)-one]",–,B (3≥B>2),≥ 5
"CC1c2cccc(-c3cccnc3)c2C(=O)N1Cc1ccc2[nH]c(=O)oc2c1 (centres unmarked) [Compound 244, 6-((1-methyl-3-oxo-4-(pyridin-3-yl)isoindolin-2-yl)methyl)benzo[d]oxazol-2(3H)-one]",–,B (3≥B>2),≥ 5
"CN(C)c1ccc2c(c1)C(Cc1c(Cl)cnn1C)N(CC1CC3(CNC(=O)O3)C1)C2=O (centres unmarked) [Compound 498, 2-((3-((4-chloro-1-methyl-1H-pyrazol-5-yl)methyl)-5-(dimethylamino)-1-oxoisoindolin-2-yl)methyl)-5-oxa-7-azaspiro[3.4]octan-6-one]",< 0.5,B (3≥B>2),–
"Cn1ncc(Cl)c1CC1c2ccccc2C(=O)N1C[C@@H]1C[C@H]1c1c[nH]nn1 (relative stereo) [Compound 548, trans 2-((2-(1H-1,2,3-triazol-4-yl)cyclopropyl)methyl)-3-((4-chloro-1-methyl-1H-pyrazol-5-yl)methyl)isoindolin-1-one]",0.5 to 5,–,–
"Cn1ncc(Cl)c1CC1c2ccccc2C(=O)N1C[C@]1(F)C[C@]2(CNC(=O)O2)C1 (some centres unmarked) [Compound 507, (2s,4s)-2-((1-((4-chloro-1-methyl-1H-pyrazol-5-yl)methyl)-3-oxoisoindolin-2-yl)methyl)-2-fluoro-5-oxa-7-azaspiro[3.4]octan-6-one]",≥ 5,B (3≥B>2),–
"CC1c2c(Br)cccc2C(=O)N1Cc1ccc2[nH]c(=O)oc2c1 (centres unmarked) [Compound 247, 6-((4-bromo-3-methyl-1-oxoisoindolin-2-yl)methyl)benzo[d]oxazol-2(3H)-one]",–,B (3≥B>2),≥ 5
"N#Cc1cccc(CC2c3ccccc3C(=O)N2Cc2ccc3[nH]c(=O)oc3c2)c1F (centres unmarked) [Compound 204, 2-fluoro-3-((3-oxo-2-((2-oxo-2,3-dihydrobenzo[d]oxazol-6-yl)methyl)isoindolin-1-yl)methyl)benzonitrile]",–,B (3≥B>2),0.5 to 5
"N#Cc1nccc(Cl)c1CC1c2cccc(F)c2C(=O)N1Cc1ccc2[nH]c(=O)oc2c1 (centres unmarked) [Compound 286, 4-chloro-3-((4-fluoro-3-oxo-2-((2-oxo-2,3-dihydrobenzo[d]oxazol-6-yl)methyl)isoindolin-1-yl)methyl)picolinonitrile]",–,B (3≥B>2),< 0.5
"Cn1ncc(Cl)c1CC1c2ccccc2C(=O)N1Cc1ccccc1 (centres unmarked) [Compound 502, 2-benzyl-3-((4-chloro-1-methyl-1H-pyrazol-5-yl)methyl)isoindolin-1-one]",≥ 5,C (2≥C),–
"Cn1ncc(Cl)c1CC1c2cccc(Br)c2C(=O)N1CC1CC2(CNC(=O)O2)C1 (centres unmarked) [Compound 434, 2-((4-bromo-1-((4-chloro-1-methyl-1H-pyrazol-5-yl)methyl)-3-oxoisoindolin-2-yl)methyl)-5-oxa-7-azaspiro[3.4]octan-6-one]",0.5 to 5,B (3≥B>2),–
"N#CC1c2ccccc2C(=O)N1Cc1ccc(O)cc1 (centres unmarked) [Compound 28, 2-(4-hydroxybenzyl)-3-oxoisoindoline-1-carbonitrile]",–,A (A>3),≥ 5
"Cn1ncc(Cl)c1CC1(C)c2ccccc2C(=O)N1CC1CC2(CNC(=O)O2)C1 (centres unmarked) [Compound 445, 2-((1-((4-chloro-1-methyl-1H-pyrazol-5-yl)methyl)-1-methyl-3-oxoisoindolin-2-yl)methyl)-5-oxa-7-azaspiro[3.4]octan-6-one]",≥ 5,B (3≥B>2),–
"Cn1ncc(Cl)c1CC1c2ccccc2C(=O)N1[C@H]1C[C@H](c2c[nH]c(=O)o2)C1 (some centres unmarked) [Compound 455, 5-((1r,3r)-3-(1-((4-chloro-1-methyl-1H-pyrazol-5-yl)methyl)-3-oxoisoindolin-2-yl)cyclobutyl)oxazol-2(3H)-one]",≥ 5,C (2≥C),–

# More lines, now with the values ahead:
EC50 [1] [µM],Enzymatic Emax,EC50 [2] [µM],Structure (SMILES)
–,B (3≥B>2),0.5 to 5,"NC(=O)c1cccc(CC2c3ccccc3C(=O)N2Cc2ccc3[nH]c(=O)oc3c2)c1 (centres unmarked) [Compound 264, 3-((3-oxo-2-((2-oxo-2,3-dihydrobenzo[d]oxazol-6-yl)methyl)isoindolin-1-yl)methyl) benzamide]"
–,A (A>3),≥ 5,"O=C1c2ccccc2C(Cc2ncccc2Br)N1Cc1cc[nH]c(=O)c1 (centres unmarked) [Compound 266, 3-((3-bromopyridin-2-yl)methyl)-2-((2-oxo-1,2-dihydropyridin-4-yl)methyl)isoindolin-1-one]"
≥ 5,C (2≥C),–,"Cn1ncc(Cl)c1CC1c2ccccc2C(=O)N1Cc1ccc2c(cnn2C)c1 (centres unmarked) [Compound 586, 3-((4-chloro-1-methyl-1H-pyrazol-5-yl)methyl)-2-((1-methyl-1H-indazol-5-yl)methyl)isoindolin-1-one]"
< 0.5,C (2≥C),–,"O=C1c2ccccc2C(Cc2ncccc2Br)N1Cc1ccc(O)cc1 (centres unmarked) [Compound 429, 3-((3-bromopyridin-2-yl)methyl)-2-(4-hydroxybenzyl)isoindolin-1-one]"
0.5 to 5,B (3≥B>2),–,"O=C1c2ccccc2C(Cc2nn(C(CO)CO)cc2Cl)N1Cc1ccc2[nH]nnc2c1 (centres unmarked) [Compound 363, 2-((1H-benzo[d][1,2,3]triazol-5-yl)methyl)-3-((4-chloro-1-(1,3-dihydroxypropan-2-yl)-1H-pyrazol-3-yl)methyl)isoindolin-1-one]"
–,B (3≥B>2),0.5 to 5,"O=C1c2ccccc2C(Cc2ncccc2Br)N1Cc1ccc2[nH]c(=S)oc2c1 (centres unmarked) [Compound 287, 3-((3-bromopyridin-2-yl)methyl)-2-((2-thioxo-2,3-dihydrobenzo[d]oxazol-6-yl)methyl) isoindolin-1-one]"
–,B (3≥B>2),0.5 to 5,"O=C1c2ccccc2C(Cc2ccc(F)cn2)N1Cc1ccc2[nH]c(=O)oc2c1 (centres unmarked) [Compound 194, 6-((1-((5-fluoropyridin-2-yl)methyl)-3-oxoisoindolin-2-yl)methyl)benzo[d]oxazol-2(3H)-one]"
0.5 to 5,C (2≥C),–,"COc1ccc(CN2C(=O)c3ccccc3C2Cc2c(Cl)cnn2C)nc1 (centres unmarked) [Compound 529, 3-((4-chloro-1-methyl-1H-pyrazol-5-yl)methyl)-2-((5-methoxypyridin-2-yl)methyl)isoindolin-1-one]"
≥ 5,C (2≥C),–,"Cn1ncc(Cl)c1CC1c2ccccc2C(=O)N1Cc1ccc(F)cc1 (centres unmarked) [Compound 572, 3-((4-chloro-1-methyl-1H-pyrazol-5-yl)methyl)-2-(4-fluorobenzyl)isoindolin-1-one]"
0.5 to 5,C (2≥C),–,"O=C1c2ccccc2C(Cc2ncccc2Br)N1Cc1ccc2[nH]c(=O)ncc2c1 (centres unmarked) [Compound 348, 6-((1-((3-bromopyridin-2-yl)methyl)-3-oxoisoindolin-2-yl)methyl)quinazolin-2(1H)-one]"
–,A (A>3),0.5 to 5,"Cc1ccnnc1CC1c2ccccc2C(=O)N1Cc1ccc2[nH]c(=O)oc2c1 (centres unmarked) [Compound 261, 6-((1-((4-methylpyridazin-3-yl)methyl)-3-oxoisoindolin-2-yl)methyl)benzo[d]oxazol-2(3H)-one]"
–,A (A>3),≥ 5,"NC(=O)c1ccc(CC2c3ccccc3C(=O)N2Cc2ccc3[nH]c(=O)oc3c2)cc1 (centres unmarked) [Compound 253, 4-((3-oxo-2-((2-oxo-2,3-dihydrobenzo[d]oxazol-6-yl)methyl)isoindolin-1-yl)methyl) benzamide]"
–,B (3≥B>2),≥ 5,"O=C1c2ccccc2C(Cc2ncccc2Br)N1Cc1ccn2cnnc2c1 (centres unmarked) [Compound 239, 2-([1,2,4]triazolo[4,3-a]pyridin-7-ylmethyl)-3-((3-bromopyridin-2-yl)methyl)isoindolin-1-one]"
≥ 5,C (2≥C),–,"Cc1ccc(CN2C(=O)c3ccccc3C2Cc2c(Cl)cnn2C)cc1 (centres unmarked) [Compound 503, 3-((4-chloro-1-methyl-1H-pyrazol-5-yl)methyl)-2-(4-methylbenzyl)isoindolin-1-one]"
